Data as given in PubChem BioAssay (NCI).
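Dose response: 5 concentrations. Exposure: 48 h. Format: 96-well plates. Endpoint: linear interpolation; highest concentration if not reached. GI50 = concentration required for 50% inhibition of growth. TGI: concentration producing complete growth inhibition.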

Legend:
Experiment in all cases: DTP human tumour cell line panel, 48 h
[1] = system: 786-0 renal
[2] = system: A498 renal
[3] = system: A549 NSCLC
[4] = system: ACHN renal
[5] = system: BT-549 breast
[6] = system: CAKI-1 renal
[7] = system: CCRF-CEM leukemia
[8] = system: COLO 205 colon
[9] = system: DU-145 prostate
[10] = system: EKVX NSCLC
[11] = system: HCC-2998 colon
[12] = system: HCT-15 colon
[13] = system: HL-60(TB) leukemia
[14] = system: HOP-92 NSCLC
[15] = system: HS 578T breast
[16] = system: HT29 colon
[17] = system: IGROV1 ovarian
[18] = system: K-562 leukemia
[19] = system: KM12 colon
[20] = system: LOX IMVI melanoma
[21] = system: MALME-3M melanoma
[22] = system: MCF7 breast
[23] = system: MDA-MB-231 breast
[24] = system: MDA-MB-435
[25] = system: MOLT-4 leukemia
[26] = system: NCI-H226 lung
[27] = system: NCI-H23 lung
[28] = system: NCI-H460 lung
[29] = system: NCI-H522 lung
[30] = system: NCI/ADR-RES ovarian
[31] = system: OVCAR-3 ovarian
[32] = system: OVCAR-4 ovarian
[33] = system: OVCAR-5 ovarian
[34] = system: OVCAR-8 ovarian
[35] = system: RPMI-8226 leukemia
[36] = system: RXF 393 renal
[37] = system: SF-268 CNS
[38] = system: SF-295 CNS
[39] = system: SF-539 CNS
[40] = system: SK-MEL-2 melanoma
[41] = system: SK-MEL-28 melanoma
[42] = system: SK-MEL-5 melanoma
[43] = system: SK-OV-3 ovarian
[44] = system: SN12C renal
[45] = system: SNB-19 CNS
[46] = system: SNB-75 CNS
[47] = system: SR leukemia
[48] = system: SW-620 colon
[49] = system: T-47D breast
[50] = system: TK-10 renal
[51] = system: U251 CNS
[52] = system: UACC-257 melanoma
[53] = system: UACC-62 melanoma
[54] = system: UO-31 renal
[55] = system: HCT-116 colon
[56] = system: HOP-62 NSCLC
[57] = system: M14 melanoma
[58] = system: PC-3 prostate

CN(C(=O)C1CCCCC1)c1ccccc1I(=O)=O
GI50 [1]: 43.3 µM
TGI [1]: > 100 µM
GI50 [2]: 52.1 µM
TGI [2]: > 100 µM
GI50 [3]: 55.9 µM
TGI [3]: > 100 µM
GI50 [4]: 39.4 µM
TGI [4]: > 100 µM
GI50 [5]: 42.4 µM
TGI [5]: > 100 µM
GI50 [6]: 36.8 µM
TGI [6]: > 100 µM
GI50 [7]: 17.6 µM
TGI [7]: 38 µM
GI50 [8]: 14.6 µM
TGI [8]: 29.8 µM
GI50 [9]: 55.9 µM
TGI [9]: > 100 µM
GI50 [10]: 43.4 µM
TGI [10]: > 100 µM
GI50 [11]: 70.3 µM
TGI [11]: > 100 µM
GI50 [12]: 23.3 µM
TGI [12]: 59.2 µM
GI50 [13]: 13.5 µM
TGI [13]: 36.8 µM
GI50 [14]: 26.1 µM
TGI [14]: 67 µM
GI50 [15]: 52.9 µM
TGI [15]: > 100 µM
GI50 [16]: 33.8 µM
TGI [16]: > 100 µM
GI50 [17]: 52.2 µM
TGI [17]: > 100 µM
GI50 [18]: 12.5 µM
TGI [18]: 27.4 µM
GI50 [19]: 37.8 µM
TGI [19]: > 100 µM
GI50 [20]: 40.2 µM
TGI [20]: > 100 µM
GI50 [21]: 14.6 µM
TGI [21]: 30.9 µM
GI50 [22]: 43.7 µM
TGI [22]: > 100 µM
GI50 [23]: 70 µM
TGI [23]: > 100 µM
GI50 [24]: 41.4 µM
TGI [24]: > 100 µM
GI50 [25]: 18 µM
TGI [25]: 51.8 µM
GI50 [26]: > 100 µM
TGI [26]: > 100 µM
GI50 [27]: 45.2 µM
TGI [27]: > 100 µM
GI50 [28]: 48 µM
TGI [28]: > 100 µM
GI50 [29]: 16.3 µM
TGI [29]: 30.2 µM
GI50 [30]: 35.9 µM
TGI [30]: > 100 µM
GI50 [31]: 30.5 µM
TGI [31]: > 100 µM
GI50 [32]: 33.2 µM
TGI [32]: > 100 µM
GI50 [33]: 37.2 µM
TGI [33]: > 100 µM
GI50 [34]: 74.8 µM
TGI [34]: > 100 µM
GI50 [35]: 12.9 µM
TGI [35]: 33.7 µM
GI50 [36]: 68.5 µM
TGI [36]: > 100 µM
GI50 [37]: 36.8 µM
TGI [37]: > 100 µM
GI50 [38]: 36.5 µM
TGI [38]: > 100 µM
GI50 [39]: 39.2 µM
TGI [39]: > 100 µM
GI50 [40]: > 100 µM
TGI [40]: > 100 µM
GI50 [41]: 22.8 µM
TGI [41]: 56.9 µM
GI50 [42]: 20.3 µM
TGI [42]: 73.8 µM
GI50 [43]: 32.4 µM
TGI [43]: > 100 µM
GI50 [44]: 79.4 µM
TGI [44]: > 100 µM
GI50 [45]: 40.3 µM
TGI [45]: > 100 µM
GI50 [46]: 34.6 µM
TGI [46]: > 100 µM
GI50 [47]: 13.7 µM
TGI [47]: 36.1 µM
GI50 [48]: 20 µM
TGI [48]: 44.6 µM
GI50 [49]: 16.4 µM
TGI [49]: 44.2 µM
GI50 [50]: 27.4 µM
TGI [50]: > 100 µM
GI50 [51]: 31.3 µM
TGI [51]: > 100 µM
GI50 [52]: 63.6 µM
TGI [52]: > 100 µM
GI50 [53]: 72.4 µM
TGI [53]: > 100 µM
GI50 [54]: 51 µM
TGI [54]: > 100 µM

Nc1ccccc1C#C/C=C\C#Cc1ccc(F)cc1F
GI50 [1]: 14.7 µM
TGI [1]: 28.7 µM
GI50 [2]: 15.8 µM
TGI [2]: 31.9 µM
GI50 [3]: 16.8 µM
TGI [3]: 67.7 µM
GI50 [4]: 16.6 µM
TGI [4]: 32.2 µM
GI50 [5]: 12.1 µM
TGI [5]: 27.5 µM
GI50 [6]: 3.13 µM
TGI [6]: 14.7 µM
GI50 [7]: 0.444 µM
TGI [7]: 10.9 µM
GI50 [8]: 29.5 µM
TGI [8]: 82 µM
GI50 [9]: 12.5 µM
TGI [9]: 33.8 µM
GI50 [10]: 19.4 µM
TGI [10]: 57.8 µM
GI50 [11]: 2.57 µM
TGI [11]: 12.6 µM
GI50 [55]: 15.4 µM
TGI [55]: 31.4 µM
GI50 [12]: 14.1 µM
TGI [12]: 31.7 µM
GI50 [13]: 21.8 µM
TGI [13]: > 100 µM
GI50 [56]: 16 µM
TGI [56]: 30 µM
GI50 [14]: 18.3 µM
TGI [14]: 59.7 µM
GI50 [15]: 13.2 µM
TGI [15]: 30.5 µM
GI50 [16]: 31.1 µM
TGI [16]: > 100 µM
GI50 [17]: 12.7 µM
TGI [17]: 40.7 µM
GI50 [18]: 4.98 µM
TGI [18]: > 100 µM
GI50 [19]: 4.17 µM
TGI [19]: 19.6 µM
GI50 [20]: 6.41 µM
TGI [20]: 19.9 µM
GI50 [57]: 16.5 µM
TGI [57]: 32 µM
GI50 [21]: 6.11 µM
TGI [21]: 22.5 µM
GI50 [22]: 6.28 µM
TGI [22]: 38.5 µM
GI50 [23]: 15.1 µM
TGI [23]: 33.3 µM
GI50 [24]: 2.38 µM
TGI [24]: 6.19 µM
GI50 [25]: 3.05 µM
TGI [25]: > 100 µM
GI50 [26]: 17.3 µM
TGI [26]: 35.8 µM
GI50 [27]: 13.3 µM
TGI [27]: 32.2 µM
GI50 [28]: 12.9 µM
TGI [28]: 28.7 µM
GI50 [29]: 13.8 µM
TGI [29]: 35.2 µM
GI50 [30]: 6.22 µM
TGI [30]: 21.1 µM
GI50 [31]: 6.2 µM
TGI [31]: 21.4 µM
GI50 [32]: 37.1 µM
TGI [32]: > 100 µM
GI50 [33]: 14.8 µM
TGI [33]: 29.6 µM
GI50 [34]: 25.2 µM
TGI [34]: 84.3 µM
GI50 [58]: 10.7 µM
TGI [58]: 56.5 µM
GI50 [35]: 1.36 µM
TGI [35]: 34.3 µM
GI50 [36]: 18.4 µM
TGI [36]: 43.2 µM
GI50 [37]: 5.95 µM
TGI [37]: 25.4 µM
GI50 [38]: 7.12 µM
TGI [38]: 24.8 µM
GI50 [39]: 7.22 µM
TGI [39]: 22.4 µM
GI50 [40]: 23 µM
TGI [40]: 58.1 µM
GI50 [41]: 27 µM
TGI [41]: 90.1 µM
GI50 [42]: 9.69 µM
TGI [42]: 25.3 µM
GI50 [43]: 27.4 µM
TGI [43]: 66.7 µM
GI50 [44]: 12.3 µM
TGI [44]: 27.7 µM
GI50 [48]: 36.9 µM
TGI [48]: > 100 µM
GI50 [49]: 26 µM
TGI [49]: > 100 µM
GI50 [50]: 11.2 µM
TGI [50]: 30.4 µM
GI50 [51]: 13.7 µM
TGI [51]: 26.5 µM
GI50 [52]: 19.5 µM
TGI [52]: 50 µM
GI50 [53]: 14.6 µM
TGI [53]: 32.5 µM
GI50 [54]: 13.1 µM
TGI [54]: 33 µM
